Laboratory results taken from patent US20230058623A1, “NOVEL HETEROARYL-TRIAZOLE COMPOUNDS AS PESTICIDES” (Bayer Aktiengesellschaft, priority 2019, published 2023).

Assays:
[1] = test system: two spotted spidermite (Tetranychus urticae); experiment: Tetranychus urticae spray test OP-resistant; format: in vivo; settings: foliar, 144 h, application rate 100 g/ha, after 6 days, French bean leaf disks
Method: Tetranychus urticae—Spray Test OP-Resistant
To produce a suitable preparation of active compound, 1 part by weight of active compound is mixed with the stated amount of solvents and is diluted with water, containing an emulsifier concentration of 1000 ppm, to the desired concentration. Further test concentrations are prepared by dilution with emulsifier containing water.
French bean (Phaseolus vulgaris) leaf disks infected with all instars of the two spotted spidermite (Tetranychus urticae) are sprayed with a preparation of the active ingredient of the desired concentration.
After 6 days mortality in % is determined. 100% means all spider mites have been killed and 0% means none of the spider mites have been killed.

[2] = test system: adult Blattella germanica strain PAULINIA; experiment: whole plant or invertebrate; format: in vivo; settings: read-out: efficacy (mortality)
Method: Blattella germanica Test (BLTTGE Surface Treatment & Contact Assay)
Solvent: Aceton+2000 ppm rapeseed oil methyl ester (RME) In order to produce a sufficient, active ingredient containing solution it is necessary to solve the test compound in the solvent-mix (acetone at 2 mg/ml/RME 2000 ppm). This solution is pipetted onto a glazed tile and after evaporation of the acetone, adult animals of the species Blattella germanica strain PAULINIA are placed onto the dried surface. The exposure time is 30 minutes.
Mortality in percent (%) is determined 24 hours after contact of the insects to the treated surface. 100% mortality means that all tested insects are dead, whereas 0% means that no insect died.

C[C@H](NC(=O)c1cc(C(F)(F)F)cc(C(F)(F)F)c1)c1ncnn1-c1ccc(C(=O)N2CCOCC2)cn1 [Example I-2]
mortality at 100 g/ha [1]: 90%

CC1CN(C(=O)c2ccc(-n3ncnc3[C@H](C)NC(=O)c3cc(C(F)(F)F)cc(C(F)(F)F)c3)nc2)CC(C)O1 (some centres unmarked) [Example I-5]
mortality at 100 g/ha [1]: 90%

Cc1nc([C@H](C)NC(=O)c2cc(C(F)(F)F)cc(C(F)(F)F)c2)n(-c2ccc(C(=O)N3CCOCC3)cn2)n1 [Example I-9, N-[(1S)-1-{3-methyl-1-[5-(morpholin-4-ylcarbonyl)pyridin-2-yl]-1H-1,2,4-triazol-5-yl}ethyl]-3,5-bis(trifluoromethyl)benzamide]
mortality at 100 g/ha [1]: 100% | mortality at 20 mg/m2 [2]: 80 to 100%

C[C@H](NC(=O)c1cc(C(F)(F)F)cc(C(F)(F)F)c1)c1ncnn1-c1ccc(C(=O)N2CCCC2)cn1 [Example I-11]
mortality at 100 g/ha [1]: 100%
